Measurements as given in PubChem BioAssay (NCI).
“And” between values parts separate entries of the source, which are not always exact repeats. Equal entries are not always repeated.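 Method: 48-hour compound exposure of cells in 96-well plates, five concentrations, linear interpolation of endpoints. The concentration for 50% growth inhibition is given as GI50. TGI marks complete inhibition of growth.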 Where a SMILES comes first, the peptide text is derived from it. [ ]: non-standard residue; d: D form. The star is where a group is joined. ξ: configuration not given here. ξPhe(4-NO2) = NC(Cc1ccc([N+](=O)[O-])cc1)C(=O)O; Boc = CC(C)(C)OC(=O)*; OBn = c1ccc(CO*)cc1

Key:
Assay in all cases: inhibition of tumour cell growth, NCI panel, 48 h
[1] = system: EKVX NSCLC
[2] = system: LOX IMVI melanoma
[3] = system: OVCAR-4 ovarian
[4] = system: SNB-75 CNS
[5] = system: SR leukemia
[6] = system: DLD-1 colon
[7] = system: DMS 114 small cell lung
[8] = system: DMS 273 small cell lung
[9] = system: HOP-18 NSCLC
[10] = system: KM20L2 colon
[11] = system: LXFL 529 NSCLC
[12] = system: M19-MEL melanoma
[13] = system: SNB-78 CNS

SMILES	TGI [1]	TGI [2]	TGI [3]	TGI [4]	TGI [5]	also measured
O=c1oc2ccccc2cc1-c1nnc(-c2ccccc2)s1	> 100 µM	> 100 µM	> 100 µM	45.6 µM	> 36.8 µM	
O=C1SC(c2ccc(Cl)cc2)(c2ccc(Cl)cc2)c2ccccc21	> 100 µM	> 100 µM	> 100 µM	> 100 µM		
CC1=NN2C(=O)CC(=O)N=C2S1	> 100 µM	> 100 µM	> 100 µM	> 100 µM	> 100 µM	
CC(C)(C)OC(=O)NC(Cc1ccc([N+](=O)[O-])cc1)C(=O)NCC(=O)OCc1ccccc1 (centres undefined) (Boc-[ξPhe(4-NO2)]-Gly-OBn)	> 100 µM	31.2 µM	> 100 µM	41.5 µM	> 100 µM	
C=C(C)[C@@H]1CC[C@@H](C)[C@](O)([C@@H]2C[C@@H]([C@H](COC(=O)c3ccccc3)OC(=O)c3ccccc3)OC2=O)C1	> 100 µM	> 100 µM	> 100 µM	> 100 µM	> 100 µM	
COc1cc(/C=C2/SC(c3ccccc3)N(c3ccc(Cl)cc3)C2=O)cc(OC)c1OC (centres undefined)	> 100 µM	> 100 µM	> 100 µM	> 100 µM	> 100 µM	
COc1ccc(C2CCC(Cl)(OC)CC2C=O)cc1 (centres undefined)	> 100 µM	43.7 µM	> 100 µM	> 100 µM	> 100 µM	TGI [6]: > 100 µM; TGI [7]: 66.7 µM; TGI [8]: > 100 µM; TGI [9]: > 100 µM; TGI [10]: > 100 µM; TGI [11]: > 100 µM; TGI [12]: > 100 µM
Cc1cn(CC2=NCC(C)(C)CN2)c(=O)[nH]c1=O	> 100 µM	> 100 µM		> 100 µM		
COC1C=C(NCC2(CO)CCC2)NC(N)=N1 (centres undefined)	> 100 µM	> 100 µM	> 100 µM	> 100 µM	> 100 µM	
CCCCCC(=O)OCC(=O)[C@H]1[C@H](C)C[C@H]2[C@@H]3C[C@H](F)C4=C/C(=N/OC(=O)c5cccc6c(=O)c7ccccc7[nH]c56)C=C[C@]4(C)[C@H]3[C@@H](O)C[C@@]21C	> 100 µM	35.7 µM	> 100 µM	69 µM	93.3 µM	
Cn1cc2c(=O)n3ncn(-c4ccc(Br)cc4)c3nc2n1	> 100 µM		> 100 µM	> 100 µM	> 100 µM	
Nc1nc(Cl)cc(NCC2(CO)CCC2)n1	> 100 µM	> 100 µM	> 100 µM	> 100 µM	> 100 µM	
Cc1[nH]n(-c2nc3c(c(=O)[nH]2)CCC3)c(=O)c1CCO	> 100 µM	> 100 µM	> 100 µM	46.5 µM		
CC1=CCC[C@@](C)(O)[C@@H]2C[C@H]3C(CSc4ccccc4)C(=O)O[C@H]3[C@@H](O2)[C@H](C)CCC1 (some centres undefined)	63.2 µM	81.6 µM	45 µM	31.1 µM	> 100 µM	
COc1cc(C)cc2c1C(=O)C(Br)=CC2=O	33.4 µM	25.7 µM	7.71 µM	31.7 µM		
O=[N+]([O-])/C(Cl)=C(\Nc1ccccc1)C(Cl)=C(Cl)Cl	> 100 µM	88.5 µM	> 100 µM	20.5 µM	69.9 µM	
CC(C)C[C@H](NC(=O)CCc1ccccc1)B(O)O	> 100 µM	16.7 µM	> 100 µM		9.8 µM	
CC1(C)CCCCCCCCCC(C)(CCCO)C1=O (centres undefined)	36.7 µM	32.9 µM	29 µM	31.9 µM	> 100 µM	
COc1ccc2c(c1)N(C(C)=O)CN1C(=O)CCC21 (centres undefined)	> 100 µM	> 100 µM	> 100 µM	> 100 µM		
c1ccc2[nH]c3[nH]c4[nH]c5ccccc5[nH]c4[nH]c3[nH]c2c1	> 100 µM	> 100 µM		53.4 µM	> 100 µM	
CN(C)c1ncnc2c1ncn2C1C=CC(COS(N)(=O)=O)C1 (centres undefined)	> 100 µM	> 100 µM	> 100 µM	> 100 µM	> 100 µM	

SMILES	TGI [1]	TGI [2]	TGI [3]	TGI [4]	TGI [5]	also measured
Cn1c2ccccc2c(=O)c2c(O)cc3c(c21)C=CC1(CCCC1)O3	> 100 µM	> 100 µM	> 100 µM	> 100 µM	> 100 µM	
Cc1ccc(S(=O)(=O)[N-]C2C(=O)c3ccccc3C(=O)C2[n+]2cccc(C(N)=O)c2)cc1 (centres undefined)	> 100 µM	> 100 µM	> 100 µM	> 100 µM	> 100 µM	
COc1ccc2nc3cc([N+](=O)[O-])ccc3c(NNc3ccc(Cl)cc3)c2c1	99 µM	> 100 µM	> 100 µM	> 100 µM	37.7 µM	
CCOc1ccc(N/C(=C(/C(Cl)=C(/Cl)NCCO)[N+](=O)[O-])n2nnc3ccccc32)cc1	> 100 µM		> 100 µM	> 100 µM		
COC(=O)/C(C#N)=C1\NC(=O)CC(c2ccccc2)C1C#N (centres undefined)	> 100 µM	> 100 µM	> 100 µM	> 100 µM	> 100 µM	
Nc1nc(N)nc(-c2cnccn2)n1	> 100 µM	> 100 µM		> 100 µM	> 100 µM	
CS(=O)(=O)c1[nH]nc2[nH]c(=O)[nH]c(=O)c12	> 10 µM	> 10 µM	> 10 µM	> 10 µM	> 10 µM	
CC1(C)C=C(/C=N/Nc2ccc(Br)cc2)C(C#N)=C(O)C1(C#N)C#N	> 100 µM	> 100 µM	> 100 µM	> 100 µM	75.5 µM	
COc1ccc(/C=C2\N=C(c3ccccc3)N(Nc3nnc(NN4C(=O)/C(=C/c5ccc(OC)cc5)N=C4c4ccccc4)c4ccccc34)C2=O)cc1	> 100 µM	43 µM	> 100 µM	> 100 µM	90.5 µM	TGI [6]: > 100 µM; TGI [7]: > 100 µM; TGI [8]: > 100 µM; TGI [9]: > 100 µM; TGI [10]: > 100 µM; TGI [11]: > 100 µM; TGI [12]: > 100 µM; TGI [13]: > 100 µM
NC(=O)C12C3C4C1C1C2C3C41C(N)=O (centres undefined)	> 100 µM	> 100 µM	> 100 µM	> 100 µM		TGI [6]: > 100 µM; TGI [7]: > 100 µM; TGI [8]: > 100 µM; TGI [9]: > 100 µM; TGI [10]: > 100 µM; TGI [11]: > 100 µM; TGI [12]: > 100 µM
CC1=CC2(O)OC3(CC2=C(C)C)C(C)CCC13 (centres undefined)	> 100 µM	> 100 µM	> 100 µM	> 100 µM		
CC(=O)NCC1(c2ccccc2)CCN(CC2COc3ccccc3O2)CC1 (centres undefined)	> 100 µM	> 100 µM	> 100 µM	> 100 µM	> 100 µM	
CO[C@@](c1ccccc1)(c1nc(C#N)c(N)o1)C(F)(F)F	> 100 µM	> 100 µM	> 100 µM	> 100 µM		
CCC(CC)C(=O)OC[n+]1cccc(-c2c(COC(=O)NC(C)C)c(COC(=O)NC(C)C)c3n2CCC3)c1	> 100 µM	> 100 µM	> 100 µM	> 100 µM	> 100 µM	
CCOC(=O)c1nnsc1NC(=O)Nc1ccc(Cl)cc1	> 100 µM		51.2 µM	88 µM		
CCCCSC1=N/C(=C\c2ccco2)C(=O)N1	> 100 µM		> 100 µM	> 100 µM		
CN(C)CCOC1(Cc2ccc(Cl)cc2Cl)CCC(C(C)(C)C)CC1 (centres undefined)	8.25 µM and 9.01 µM	2.97 µM and 3.06 µM	3.87 µM and 3.85 µM	3.89 µM and 7.39 µM	4.64 µM and 1.47 µM	GI50 [1]: 3.04 µM and 4.01 µM; GI50 [4]: 2.52 µM; GI50 [5]: 1.87 µM
CC1(C)OC(=O)C(C)(C)OC1=O	> 100 µM	> 100 µM	> 100 µM	> 100 µM	> 100 µM	
CC(=O)O[C@H]1C(=O)[C@@]2(C)[C@H]([C@H](OC(=O)c3ccc([N+](=O)[O-])cc3)[C@]3(O)C[C@H](OC(=O)[C@H](O)[C@@H](NC(=O)c4ccccc4)c4ccccc4)C(C)=C1C3(C)C)[C@]1(OC(C)=O)CO[C@@H]1C[C@@H]2O	> 25 µM		> 25 µM	> 25 µM	> 25 µM	
C[C@]12CC(c3ccccc3O1)C(C#N)C(=O)N2 (some centres undefined)	> 100 µM	> 100 µM	> 100 µM	> 100 µM	> 100 µM	
NC1=CC(C(=O)c2ccncc2)c2nc3ccccc3nc21 (centres undefined)	> 100 µM	88.1 µM	> 100 µM	> 100 µM		

SMILES	TGI [1]	TGI [2]	TGI [3]	TGI [4]	TGI [5]	also measured
C[C@H]1C(OCCOC2O[C@@H]3O[C@@]4(C)CC[C@H]5[C@H](C)CCC([C@H]2C)[C@@]35O4)O[C@@H]2O[C@@]3(C)CC[C@H]4[C@H](C)CCC1[C@@]24O3 (some centres undefined)		57.5 µM	> 100 µM	81.7 µM	> 100 µM	
O=c1oc2cc(O)ccc2c(O)c1C(c1ccccn1)c1c(O)c2ccc(O)cc2oc1=O	> 100 µM	> 100 µM		> 100 µM	> 100 µM	
COc1ccc(C2CC(=O)Oc3ccccc3O2)cc1 (centres undefined)	> 100 µM		> 100 µM	> 100 µM	> 100 µM	
CC(NC(=O)/C(C#N)=C/c1ccc2[nH]ccc2c1)c1ccccc1 (centres undefined)	50.4 µM	31.8 µM	49.5 µM	60.5 µM	83.7 µM	TGI [6]: 34.5 µM; TGI [7]: 37.6 µM; TGI [8]: 40.7 µM; TGI [9]: 53.3 µM; TGI [10]: 33.2 µM; TGI [11]: 41.4 µM; TGI [13]: 90.4 µM
COC(=O)C(/C(=N/N)C(=O)Nc1cc(Cl)c(Cl)cc1Cl)c1nc2ccc(Cl)cc2[nH]c1=O (centres undefined)	> 100 µM	> 100 µM	> 100 µM	> 100 µM	> 100 µM	
CN1CC2=C(NC(=S)NC2c2ccc(Cl)cc2)/C(=C/c2ccc(Cl)cc2)C1 (centres undefined)	68.8 µM	35.8 µM		31.2 µM	51.5 µM	
Cc1cnc2[nH]c(-c3ccc(F)cc3)cc(=O)c2c1	> 100 µM	> 100 µM	> 100 µM	62.8 µM	> 61.5 µM	
CCCC(=O)N/S(=N/S(=O)(=O)c1ccc(Cl)cc1)C(Cl)(Cl)Cl (centres undefined)	> 100 µM				> 100 µM	
CC1(C)[C@@H]2C[C@H]1C(Cc1ccc(C[C@H]3c4cc(-c5ccccn5)ncc4[C@H]4C[C@@H]3C4(C)C)cc1)c1cc(-c3ccccn3)ncc12 (some centres undefined)	15 µM	7.55 µM		> 100 µM	5.02 µM	
CC(=N/NC(=S)Nc1c(C)n(C)n(-c2ccccc2)c1=O)/C(C)=N\NC(=S)Nc1c(C)n(C)n(-c2ccccc2)c1=O	> 100 µM		> 100 µM	> 100 µM	> 100 µM	
C#CCCOC1(OC)N=NC(C)(C)O1 (centres undefined)	> 100 µM	> 100 µM	> 100 µM	> 100 µM	> 100 µM	
COc1ccc(C2SC(N)=Nc3c2c(C)nn3C(=O)c2ccc(Cl)cc2)cc1 (centres undefined)	> 10 µM	> 10 µM	> 10 µM	> 10 µM		
O=c1cc(NCC2CCCCC2)[nH]c(=O)[nH]1	> 100 µM	> 100 µM	> 100 µM	> 100 µM	> 100 µM	
COc1ccc(OC)c(NC(=O)C(=O)Nn2c(=S)[nH]c3ccccc3c2=O)c1	> 100 µM	> 100 µM	> 100 µM	> 100 µM	> 100 µM	
CO/C(=N\N=C\c1ccc(OC)cc1OC)c1ccncc1		> 10 µM		> 10 µM	> 10 µM	
NC(=O)C(=CN1C(=O)CC(=O)NC1=S)C(N)=O	> 100 µM	> 100 µM	> 100 µM	> 100 µM		
Cc1cc(NC(=O)C(=O)Cc2cnc3ccccc3n2)c(S(=O)(=O)O)cc1Cl	> 100 µM	> 100 µM	> 100 µM	> 100 µM		
CN(C)c1ccc(/C=C2\N=C(N/N=C/c3ccccc3)NC2=O)cc1	> 100 µM		> 100 µM	> 100 µM		
CCOC(=O)c1cc(C2CCN(CC(C)CC)C2=S)c(C(=O)/C=C(/C)N)[nH]1 (centres undefined)	> 50 µM	> 50 µM		> 50 µM	> 50 µM	
CC1(C)C=[N+]([O-])C(C)(C)N1	> 100 µM	> 100 µM	> 100 µM	> 100 µM	> 100 µM	
